“Also recorded” adds a separate entry of the source. Structures can show the parent of a compound that is named as a salt. Where two headings read alike, the source gives them in different places.

Data set [1] concerns full-length J6/JFH (genotype 2a) HCV RNA genome. The experiment in a line: microbe, parasite or virus in culture. The format is cell-based. The following applies: for EC50: Hepatitis C virus, Huh7.5, 72 h, read-out: EC50 HCV replication, genotype 2a luciferase reporter, Huh7.5 cells, 72 hr. The protocol: In such assays, luciferase activity is directly proportional to HCV RNA genome replication.
The in vivo antiviral effect on HCV RNA replication of the inhibitory compounds identified in the above screen was measured. Following electroporation with a full-length HCV RNA genome harboring a luciferase reporter gene, Huh7.5 cells were grown in the presence of increasing concentrations of these compounds. Luciferase assays were performed at 72 hr. In parallel, the viability of cells in the presence of the compounds was assessed by an Alamar Blue-based assay.
Huh-7.5 cells were maintained in Dulbecco's modified minimal essential medium (Gibco) supplemented with 1% L-glutamine (Gibco), 1% penicillin, 1% streptomycin (Gibco), 1× nonessential amino acids (Gibco) and 10% fetal bovine serum (Omega Scientific). Cell lines were passaged twice weekly after treatment with 0.05% trypsin-0.02% EDTA and seeding at a dilution of 1:5. Subconfluent Huh-7.5 cells were trypsinized and collected by centrifugation at 700 g for 5 min. The cells were then washed three times in ice-cold RNase-free PBS (BioWhittaker) and resuspended at 1.5*10^7 cells/ml in PBS. Wild type or mutant FL-J6/JFH-5′C19Rluc2AUbi RNA for electroporation was generated by in vitro transcription of XbaI-linearized DNA templates using the T7 MEGAscript kit (Ambion), followed by purification, essentially as described above (In vitro RNA transcription and fluorescent labeling). 5 μg of RNA was mixed with 400 μl of washed Huh-7.5 cells in a 2 mm-gap cuvette (BTX) and immediately pulsed (0.82 kV, five 99 μs pulses) with a BTX-830 electroporator. After a 10 min recovery at 25° C., pulsed cells were diluted into 10 ml of prewarmed growth medium. Cells from several electroporations were pooled to a common a stock and seeded in 6 well plates (5*10^5 cells per well). After 24 hr, medium was replaced and cells were grown in the presence of serial dilutions of the various inhibitory compounds (Sigma) identified in the screen. […] Untreated cells were used as a negative control for water soluble compounds. For compounds solubilized in DMSO, untreated cells were grown in the presence of corresponding concentrations of the solvent as a negative control. Medium was changed daily. After 72 hr of treatment, cells were subjected to an alamar blue based viability assay and luciferase assay.
The experiment was repeated four times, each time with triplicates.
Following electroporation with a full-length J6/JFH (genotype 2a) HCV RNA genome harboring a luciferase reporter gene, Huh7.5 cells were grown in the presence of various concentrations of the individual compounds and their combinations. Luciferase assays were performed at 72 hr.

A further data set deals with hERG channel (Homo sapiens, UniProt Q12809). The experiment in a line: HERG channel assay (whole cell recordings, CHO cell line expressing hERG). (hERG is a cardiac potassium channel; its block is linked to QT prolongation.)
hERG channel, sequence (Q12809 whole entry): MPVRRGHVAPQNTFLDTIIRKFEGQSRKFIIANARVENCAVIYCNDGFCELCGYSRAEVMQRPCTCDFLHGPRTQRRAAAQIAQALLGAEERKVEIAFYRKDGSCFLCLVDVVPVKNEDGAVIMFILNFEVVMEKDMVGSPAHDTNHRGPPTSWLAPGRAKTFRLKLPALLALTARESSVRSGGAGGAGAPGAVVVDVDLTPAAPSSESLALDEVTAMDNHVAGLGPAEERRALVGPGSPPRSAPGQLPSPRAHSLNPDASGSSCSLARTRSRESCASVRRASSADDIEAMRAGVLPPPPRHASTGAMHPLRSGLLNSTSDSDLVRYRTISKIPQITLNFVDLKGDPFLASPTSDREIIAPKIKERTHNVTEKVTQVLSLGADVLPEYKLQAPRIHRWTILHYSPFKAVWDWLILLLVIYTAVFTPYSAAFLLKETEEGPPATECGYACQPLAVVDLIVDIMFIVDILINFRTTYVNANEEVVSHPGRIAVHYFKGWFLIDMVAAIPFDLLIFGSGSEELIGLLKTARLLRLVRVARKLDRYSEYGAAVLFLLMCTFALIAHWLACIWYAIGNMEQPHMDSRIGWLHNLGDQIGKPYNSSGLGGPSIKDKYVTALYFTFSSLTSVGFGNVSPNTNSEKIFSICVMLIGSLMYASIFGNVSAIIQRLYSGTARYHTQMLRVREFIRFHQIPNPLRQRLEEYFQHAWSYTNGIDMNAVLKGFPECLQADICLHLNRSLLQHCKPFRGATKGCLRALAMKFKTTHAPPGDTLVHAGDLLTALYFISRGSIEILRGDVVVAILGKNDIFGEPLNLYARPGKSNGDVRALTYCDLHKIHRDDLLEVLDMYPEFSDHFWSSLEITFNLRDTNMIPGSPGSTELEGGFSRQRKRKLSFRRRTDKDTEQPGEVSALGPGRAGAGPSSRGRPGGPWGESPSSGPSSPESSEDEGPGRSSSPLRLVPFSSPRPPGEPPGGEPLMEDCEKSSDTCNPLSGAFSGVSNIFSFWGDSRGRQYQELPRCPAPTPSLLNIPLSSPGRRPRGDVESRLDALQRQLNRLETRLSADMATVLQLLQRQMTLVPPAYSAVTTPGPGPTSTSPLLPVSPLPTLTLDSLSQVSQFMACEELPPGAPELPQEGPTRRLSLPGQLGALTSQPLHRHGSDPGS
In another data set the test system is HCV. The following applies: cited from earlier work.
The subject of another data set is Huh7.5 cells. The experiment in a line: Alamar Blue-based cell viability assay. Also on record: species or system human. The protocol:
(§1) Total volume per well is 100 μl.
(§2) (or until there is a color change).
(Alamar Blue is a resazurin reagent that responds to reducing activity.)

The nature of data set [2]: Alamar Blue-based cell viability assay. Also on record: species or system human. As to conditions: human, Huh7.5 cells; genotype 2a experiments; Alamar Blue-based and CellTiter-Blue assay. The method, then: as §1, §2
For data set [3], the system named is subgenomic Bart 79I HCV RNA replicon (genotype 1b). The experiment in a line: microbe, parasite or virus in culture. Type of data set: cell-based. The following applies: Hepatitis C virus; genotype 1b luciferase reporter, 72 hr; read-out: EC50 HCV replication.
Procedure: Huh7.5 cells were electroporated with a subgenomic Bart 79I HCV RNA replicon harboring a luciferase reporter gene, and grown in the presence of increasing concentrations of the individual compounds or their combinations. As described above, luciferase assays and Alamar Blue-based viability assays were performed at 72 hr.
Data set [4] has as its system replicon harboring the W55R mutation. The experiment in a line: Whole cell RNA electroporation, clemizole resistant clone. As to conditions: 10 μM clemizole; 2.5 μM SCH503034. Type of data set: cell-based, HCV. The protocol:
Whole cell RNA was extracted from clemizole-resistant replicon clones and from untreated replicon cells using TRIzol reagent (Invitrogen). Equal amounts of whole cell RNA (50 μg) were electroporated into Huh7.5 cells as described above. Cells were grown under G418 selection in the presence or absence of clemizole for 3 weeks. The number of colonies was determined using Image J (NIH) following fixation and staining with Crystal violet.
Cells transfected with whole cell RNA extracted from wild type replicon cells were sensitive to both drugs.

In data set [5] the test system is replicon harboring the A156T mutation. The experiment in a line: Whole cell RNA electroporation, SCH503034 resistant clone. Type of data set: cell-based, HCV.
In another data set the target is T1, HuR (Homo sapiens, UniProt Q15717).
T1 construct: The open reading frames (ORF) of HuR and HuD were obtained from the ORFeome library of cDNA clones (Open biosystems); V5-his (C); made in house; host or cells: cell-free expression on the microfluidic device, from pcDNA-Dest 40 carrying the ORFeome clone (Open Biosystems)
T1 sequence (Q15717 whole entry): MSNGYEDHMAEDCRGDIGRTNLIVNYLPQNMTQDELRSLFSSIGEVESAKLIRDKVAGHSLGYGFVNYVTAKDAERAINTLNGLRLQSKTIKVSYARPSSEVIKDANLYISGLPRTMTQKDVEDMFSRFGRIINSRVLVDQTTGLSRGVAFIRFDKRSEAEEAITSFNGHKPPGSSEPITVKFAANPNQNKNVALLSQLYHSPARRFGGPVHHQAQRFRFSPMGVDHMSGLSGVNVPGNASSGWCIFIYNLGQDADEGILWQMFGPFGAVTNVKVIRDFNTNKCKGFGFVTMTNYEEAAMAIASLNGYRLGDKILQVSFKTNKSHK
The experiment in a line: HuR RNA binding by microfluidics (specificity of hits). The following applies: 0.1 mM. The method, then: Specificity of hits identified in the small molecule screen: To determine the specificity of the hits identified in the small molecule screen, the HuR protein (one of the human RNA binding protein used to validate our RNA binding assay) was selected. […] Binding of HuR to the consensus 4A RNA sequence was tested in the presence of the inhibitory molecules shown to inhibit RNA binding by NS4B. […] Similarly, 0.1 mM of the identified compounds didn't have an inhibitory effect on binding of HuR to the 3′ terminus of the negative HCV RNA strand.

For the next data set, the system named is HCV RNA replication. The experiment in a line: RNA replication inhibition assay (luciferase reporter-linked HCV genome). As to conditions: Hepatitis C virus, percentage of untreated control population; for activity at 5 µM: read-out: Residual Luciferase activity, 5 micromolar; for activity at 10 µM: read-out: Residual Luciferase activity, 10 micromolar.

Procedure for hERG channel: Test articles in this study were therefore characterized to determine their ability to inhibit the hERG channel. Ion channel activity was measured using a stably transfected Chinese Hamster Ovary (CHO) cell line expressing the hERG mRNA.
AVIVA's CHO cell line, which stably expresses hERG channels, was used for the study. Cells were cultured in DMEM/F12 containing 10% FBS, 1% penicillin/streptomycin and 500 μg/ml G418. Before testing, cells were harvested using Accumax (Innovative Cell Technologies).
Whole cell recordings were-performed using PX 7000A (Axon Instruments) with VIVA's SealChip™ technology. Cells were voltage clamped at a holding potential of −80 mV. The hERG current was then activated by a depolarizing step to −50 mV for 300 ms. This first step at −50 mV was used as a baseline for measuring peak amplitude of the tail current. Next, a voltage step to +20 mV was applied for 5 s to activate the channels. Finally a step back to −50 mV for 5 seconds removed activation and the deactivating tail current was recorded.
All compounds were prepared from either 10 or 30 mM DMSO stock solutions. Solutions were mixed by sonication for 20 min, followed by vigorous vortexing. Prior to testing, compounds were diluted to test concentrations in glass vials using External Solution. Dilutions were prepared no longer than 20 min prior to use. Equal amounts of DMSO (0.1%) were present in all final dilutions.
After achieving whole cell configuration, cells were monitored for 90 s to assess stability and then washed with External Solution for 66 s. The voltage protocol described above was then applied to the cells every 12 s throughout the procedure. Only stable cells with recording parameters above threshold (see Quality Control section) were allowed to enter the drug addition procedure. External solution containing 0.1% DMSO (vehicle) was applied to the cells to establish a baseline. After allowing the current to stabilize for 3 to 5 min, test articles were applied. Test article solutions were added to cells in 4 separate additions. […]

The EC50 is the concentration giving half of the maximal effect. As to `CC(C)[C@H](N)C(=O)O[C@@H]1[C@@H](CO)O[C@@H](n2ccc(N)nc2=O)[C@]1(C)O` [NM283, valopicitabine], in data set [1], the EC50 was 1160 ± 200 nM.

The term IC50 denotes the concentration that inhibits the measured activity by half. In turn, `Cc1ccc2c(c1)nc(CN1CCCCC1)n2Cc1ccc(Cl)cc1` [Compound 184] gave an IC50 against hERG channel (human, CHO cells stably expressing hERG) greater than 1000 nM.

For the compound `O=c1ccc(-c2nc3cc(Cl)c(Cl)cc3n2Cc2ccc(Cl)c(Cl)c2)c[nH]1` [Compound 167], the IC50 at hERG channel (read-out: HERG IC50, CHO cell line stably expressing hERG) was greater than 1000 nM.

Consider `CCC[C@H](NC(=O)[C@@H]1[C@H]2CCC[C@H]2CN1C(=O)[C@@H](NC(=O)[C@@H](NC(=O)c1cnccn1)C1CCCCC1)C(C)(C)C)C(=O)C(=O)NC1CC1` [VX-950, telaprevir], for which the EC50 in data set [1] was roughly 300 nM; with HCV (different assay and 1b genotype, read-out: EC50 reported by others), 354 to 560 nM.

With `Clc1ccc(Cn2c(CN3CCCC3)nc3ccccc32)cc1` [Clemizole hydrochloride, clemizole hydrochloride], the cellular toxicity result was “no measurable cellular toxicity” with Huh7.5 cells (at antiviral concentrations, Alamar Blue, 72 hr, hydrochloride) and “little toxicity” in the data set on Huh7.5 cells (human, 72 h). The “decrease in viral replication” value in data set [1] (20 μM, 72 hr) was “tenfold”.

In general, CC50 refers to the concentration at which the toxic effect on the cells reaches its halfway point. Lower therefore signals harm at low concentration. The compound `CC(C)(C)NC(=O)N[C@H](C(=O)N1C[C@H]2[C@@H]([C@H]1C(=O)NC(CC1CCC1)C(=O)C(N)=O)C2(C)C)C(C)(C)C` (stereo partly drawn) [SCH503034, boceprevir] registered a CC50 at 72 h in [2] greater than 100000 nM. The compound further returned a 50% cytotoxic concentration (CC50) with Huh7.5 cells (genotype 1b experiments, Alamar Blue, 72 hr) greater than 100000 nM. Besides, the EC50 in [1] amounted to 800 nM. In data set [1] (SCH503034 alone at 2.5 μM), the “decrease of viral replication” value is recorded as roughly 1 log and the “viral replication relative to 1, untreated” value is 0.08. Moreover, in data set [3], the EC50 is roughly 210 nM. Also, the “sensitivity of Huh7.5 cells transfected with whole cell RNA from W55R clone” value in data set [4] is given as “remained sensitive”. For the same compound, the “sensitivity of Huh7.5 cells transfected with whole cell RNA from A156T clone” value in data set [5] is recorded as “decreased sensitivity”.

For `O=C(O)C1=CC(=C(c2ccc(O)c(C(=O)O)c2)c2ccc(O)c(C(=O)O)c2)C=CC1=O` [ATA], at HuR, the “effect on binding of HuR to 4A RNA sequence” value is on record as “affected; also recorded: significantly inhibited” and the “effect on binding of HuR to the 3′ terminus of the negative HCV RNA strand” value is recorded as “significantly inhibited”.

As to `Cc1cccc(Cn2cnc3c(NS(C)(=O)=O)c(C)c(C)cc32)c1` [Compound 75], in the data set on HCV RNA replication, the activity at 5 µM was greater than 80% and the activity at 10 µM is less than 80%.

For the compound `CC(=O)NCc1nc2ccccc2n1Cc1ccc(Cl)cc1` [Compound 110], in the data set with HCV RNA replication, the activity at 5 µM was greater than 80% and the activity at 10 µM is greater than 80%.

With `Cc1cc2ncn(Cc3ccc(Cl)cc3Cl)c2cc1C` [Compound 130], in the data set on HCV RNA replication, the activity at 5 µM was less than 55% and the activity at 10 µM is less than 20%.

With `O=C(O)c1ccc2ncn(Cc3ccc(Cl)cc3)c2c1` [Compound 45], in the data set with HCV RNA replication, the activity at 5 µM was greater than 80% and the activity at 10 µM is greater than 80%.

Turning to `CCCS(=O)(=O)c1nc2ccccc2n1Cc1ccc(Cl)cc1` [Compound 99], in the data set on HCV RNA replication, the activity at 5 µM is less than 20% and the activity at 10 µM is less than 20%.

Regarding `Nc1nc2ccccc2n1C(=O)c1ccc(Cl)cc1` [Compound 133], in the data set on HCV RNA replication, the activity at 5 µM was greater than 80% and the activity at 10 µM is less than 55%.

As to `CC(=O)N1CCC(Cn2c(CN3CCCC3)nc3ccccc32)CC1` [Compound 37], in the data set with HCV RNA replication, the activity at 5 µM was less than 80% and the activity at 10 µM was greater than 80%.

For `CNC(=O)c1c(-c2ccc(F)cc2)oc2cc(N(CCO)S(C)(=O)=O)c(C3CC3)cc12` [HCV 796, HCV-796], the EC50 in data set [1] is 68 ± 8 nM; in the data set with HCV (read-out: EC50 reported value) it was 17 nM.

As for `Clc1ccc(Cn2ccc3cc(Cl)cnc32)cc1` [Compound 100], in the data set on HCV RNA replication, the activity at 5 µM was greater than 80% and the activity at 10 µM was less than 80%.

Take `COCC1CCN(Cc2nc3ccccc3n2Cc2ccc(Cl)cc2)C1` (stereo not drawn) [Compound 6]: in the data set on HCV RNA replication, the activity at 5 µM is greater than 80% and the activity at 10 µM is less than 80%.

Turning to `Cc1ccc2c(c1)ncn2Cc1ccc(Cl)cc1` [Compound 53], in the data set with HCV RNA replication, the activity at 5 µM was less than 55% and the activity at 10 µM is less than 20%.

On to `Cc1nc2ccccc2n1Cc1ccc(Br)cc1` [Compound 135], for which, in the data set on HCV RNA replication, the activity at 5 µM was less than 20% and the activity at 10 µM was less than 20%.

Regarding `Cc1cc2ncn(Cc3ccc(C#N)cc3)c2cc1C` [Compound 138], in the data set on HCV RNA replication, the activity at 5 µM is less than 80% and the activity at 10 µM was greater than 80%.

`c1ccc2c(c1)nc(CN1CCCC1)n2CC1CCCCC1` [Compound 22]: in the data set with HCV RNA replication, the activity at 5 µM is greater than 80% and the activity at 10 µM is less than 80%.

`CS(=O)(=O)c1ccc2c(c1)ncn2Cc1ccccc1` [Compound 149]: in the data set on HCV RNA replication, the activity at 5 µM is greater than 80% and the activity at 10 µM was greater than 80%.

Turning to `Clc1ccccc1Cn1c(CN2CCCC2)nc2ccccc21` [Compound 19], in the data set on HCV RNA replication, the activity at 5 µM was greater than 80% and the activity at 10 µM is greater than 80%.

For `Cc1cc2nc(C(C)O)n(Cc3ccc(Cl)cc3)c2cc1C` (stereo not drawn) [Compound 87], in the data set with HCV RNA replication, the activity at 5 µM is less than 55% and the activity at 10 µM was less than 55%.

Take `CC(C)c1ccc(Cn2c(CN3CCCC3)nc3ccccc32)cc1` [Compound 41]: in the data set with HCV RNA replication, the activity at 5 µM was less than 80% and the activity at 10 µM is less than 80%.

In the case of `Cc1cc2nc(CN3CCCC3C(N)=O)n(Cc3ccc(Cl)cc3)c2cc1C` (stereo not drawn) [Compound 52], in the data set on HCV RNA replication, the activity at 5 µM is less than 80% and the activity at 10 µM was less than 80%.

As for `Clc1ccc(Cn2c(Cc3ccccc3)nc3ccccc32)c(Cl)c1` [Compound 122], in the data set with HCV RNA replication, the activity at 5 µM was less than 55% and the activity at 10 µM was less than 55%.

Turning to `NC1=NC2CCCCC2N1C(=O)c1ccc(Cl)cc1` (stereo not drawn) [Compound 132], in the data set with HCV RNA replication, the activity at 5 µM is greater than 80% and the activity at 10 µM was greater than 80%.

As for `O=C(Cc1ccccc1)NCCCc1nc2ccccc2n1Cc1ccc(Cl)cc1` [Compound 111], in the data set on HCV RNA replication, the activity at 5 µM is less than 55% and the activity at 10 µM is less than 20%.

Regarding `Cc1cc2nc(C(C)N3CCCC3)n(Cc3ccc(Cl)cc3)c2cc1C` (stereo not drawn) [Compound 88], in the data set on HCV RNA replication, the activity at 5 µM was less than 55% and the activity at 10 µM was less than 20%.

Turning to `COc1ccc(Cn2cnc3ccccc32)cc1OC` [Compound 140], in the data set on HCV RNA replication, the activity at 5 µM was less than 20% and the activity at 10 µM was less than 55%.

The values are drawn from US9101628B2, “Methods and composition of treating a flaviviridae family viral infection” (The Board of Trustees of the Leland Stanford Junior …, priority 2007, dated 2015).
